1 compound from US8338517B2, “Aqueous compositions of fluorinated surfactants and methods of using the same” (3M Innovative Properties Company, priority 2007, dated 2012) can be followed below.

The data set can be described thus: Static surface tension of aqueous surfactant solutions (Kruss K-12 tensiometer, Du Nouy ring method). In kind it is physicochemical. Particulars: 1000 ppm in water, 20° C. The method, then:
The solution from was diluted with water to a concentration of 1000 ppm.
The procedure of Preparation 1 was followed except using 16.3 grams of C3F7OCHFCF2COOCH3 instead of the CF3O(CF2)3OCHFCF2COOCH3 to prepare a solution of C3F7OCHFCF2COOK. This solution was diluted with water to a concentration of 1000 ppm.
Static surface tensions were measured on the solutions of Preparations 1 to 6 using a Kruss K-12 tensiometer (obtained from Kruss GmbH, Hamburg, Germany) using the Du Nouy ring method at 20° C.

As to `O=C([O-])C(F)(F)C(F)(F)C(F)(F)C(F)(F)C(F)(F)F.[K+]` [potassium perfluorohexanoate], the “Surface Tension” value came to 58.5 mN/m.
